Source: patent US8158809B2 (priority 2003, dated 2012)

System: HCT116
Test: Cell colony formation assay
Format: cell-based
Details: 72 hours with drug, colonies counted after 7 days
Protocol: This example provides directions for growing cells and testing compounds of the invention for their effect on the growth of the cells. All cells were purchased from DCTDC Tumor Repository, NCI, NIH.
The cells were incubated in a CO2 incubator at 37° C. for 5 hours for attachment to the bottom of Petri dishes. Drugs were made fresh in medium at ten times the final concentration, and then 0.3 ml of this stock solution was added to the 2.7 ml of medium in the dish. The cells were then incubated with drugs for 72 hours at 37° C. At the end of the incubation the drug-containing media were decanted, the dishes were rinsed with 4 ml of Hank's Balance Salt Solution (HBSS), 5 ml of fresh medium was added, and the dishes were returned to the incubator for colony formation. The cell colonies were counted using colony counter after incubation for 7 days for HCT116 cells and PC-3 cells and 8 days for VM46 cells, respectively. Cell survival (%) was calculated, as shown in Table I below for HCT 116 cells.

COc1cc(C2c3cc4c(cc3C(OC(=O)c3ccc5c(c3)C(=O)c3ccccc3C5=O)C3COC(=O)C23)OCO4)cc(OC)c1OC (stereo not drawn) [Compound 000121, Podophyllotoxin-4-O-ester of anthraquinone-2-carboxylic acid]
In Vitro Efficacy: Survival (%) of HCT116 (100 nM): 94.03%
In Vitro Efficacy: Survival (%) of HCT116 (1000 nM): 0%

COc1cc([C@@H]2c3cc4c(cc3[C@H](OC(=O)c3cccc(NC(=O)CCl)c3)[C@H]3COC(=O)[C@H]23)OCO4)cc(OC)c1OC [Compound 000124, Podophyllotoxin-4-O-ester of 3-chloroacetamidobenzoic acid]
In Vitro Efficacy: Survival (%) of HCT116 (10 nM): 83.22%
In Vitro Efficacy: Survival (%) of HCT116 (100 nM): 0%
In Vitro Efficacy: Survival (%) of HCT116 (1000 nM): 0%

COc1cc(C2c3cc4c(cc3C(OC(=O)c3cc(-c5ccccc5)nc5ccccc35)C3COC(=O)C23)OCO4)cc(OC)c1OC (stereo not drawn) [Compound 000125, Podophyllotoxin-4-O-ester of 2-phenyl-4-quinolinecarboxylic acid]
In Vitro Efficacy: Survival (%) of HCT116 (100 nM): 90.34%
In Vitro Efficacy: Survival (%) of HCT116 (1000 nM): 0%

COc1cc(C2c3cc4c(cc3C(OC(=O)CCC(=O)O)C3COC(=O)C23)OCO4)cc(OC)c1OC (stereo not drawn) [Compound 000201, Podophyllotoxin-4-O-ester of hemisuccinic acid]
In Vitro Efficacy: Survival (%) of HCT116 (100 nM): 93.24%
In Vitro Efficacy: Survival (%) of HCT116 (1000 nM): 0%

COc1cc(C2c3cc4c(cc3C(OC(=O)c3ccc([N+](=O)[O-])o3)C3COC(=O)C23)OCO4)cc(OC)c1OC (stereo not drawn) [Compound 000202, Podophyllotoxin-4-O-ester of 5-nitro-2-furoic acid]
In Vitro Efficacy: Survival (%) of HCT116 (10 nM): 81.68%
In Vitro Efficacy: Survival (%) of HCT116 (100 nM): 0%
In Vitro Efficacy: Survival (%) of HCT116 (1000 nM): 0%

COc1cc([C@@H]2c3cc4c(cc3[C@H](OC(=O)[C@@H]3CCCN3C(=O)OC(C)(C)C)[C@H]3COC(=O)[C@H]23)OCO4)cc(OC)c1OC [Compound 000203, Podophyllotoxin-4-O-ester of N-(tert-Butoxycarbonyl)-L-proline]
In Vitro Efficacy: Survival (%) of HCT116 (100 nM): 89.76%
In Vitro Efficacy: Survival (%) of HCT116 (1000 nM): 0%

COc1cc([C@@H]2c3cc4c(cc3[C@H](OC(=O)c3cc(=O)c5ccccc5o3)[C@H]3COC(=O)[C@H]23)OCO4)cc(OC)c1OC [Compound 000215, Podophyllotoxin-4-O-ester of chromone-2-carboxylic acid]
In Vitro Efficacy: Survival (%) of HCT116 (10 nM): 92.46%
In Vitro Efficacy: Survival (%) of HCT116 (100 nM): 0%
In Vitro Efficacy: Survival (%) of HCT116 (1000 nM): 0%

COc1cc(C2c3cc4c(cc3C(OC(=O)COC3CC(C)CCC3C(C)C)C3COC(=O)C23)OCO4)cc(OC)c1OC (stereo not drawn) [Compound 000218, Podophyllotoxin-4-O-ester of (+)-menthoxyethanoic acid]
In Vitro Efficacy: Survival (%) of HCT116 (100 nM): 44.28%
In Vitro Efficacy: Survival (%) of HCT116 (1000 nM): 0%

COc1cc([C@@H]2c3cc4c(cc3[C@H](OC(=O)C(C)ON=C3c5cc([N+](=O)[O-])cc([N+](=O)[O-])c5-c5c3cc([N+](=O)[O-])cc5[N+](=O)[O-])[C@H]3COC(=O)[C@H]23)OCO4)cc(OC)c1OC (stereo partly drawn) [Compound 000222, Podophyllotoxin-4-O-ester of (+)-2-(2,4,5,7-tetranitro-9-fluorenylideaminooxy)-propionic acid]
In Vitro Efficacy: Survival (%) of HCT116 (10 nM): 100%
In Vitro Efficacy: Survival (%) of HCT116 (100 nM): 1.46%
In Vitro Efficacy: Survival (%) of HCT116 (1000 nM): 0%

COc1cc([C@@H]2c3cc4c(cc3[C@H](OC(=O)C3Cc5c([nH]c6ccccc56)CN3C(=O)OC(C)(C)C)[C@H]3COC(=O)[C@H]23)OCO4)cc(OC)c1OC (stereo partly drawn) [Compound 000301, Podophyllotoxin-4-O-ester of N—BOC-1,2,3,4-Tetrahydro-β-carboline-3-carboxylic acid]
In Vitro Efficacy: Survival (%) of HCT116 (100 nM): 84.08%
In Vitro Efficacy: Survival (%) of HCT116 (1000 nM): 0%

COc1cc(C2c3cc4c(cc3C(OC(=O)C3Cc5ccccc5CN3C(=O)OC(C)(C)C)C3COC(=O)C23)OCO4)cc(OC)c1OC (stereo not drawn) [Compound 000302, Podophyllotoxin-4-O-ester of N—BOC-1,2,3,4-Tetrahydroisoquinoline-3-carboxylic acid]
In Vitro Efficacy: Survival (%) of HCT116 (100 nM): 100%
In Vitro Efficacy: Survival (%) of HCT116 (1000 nM): 0%

COc1cc(C2c3cc4c(cc3C(OC(=O)C(NC(=O)OC(C)(C)C)C(C)c3ccccc3)C3COC(=O)C23)OCO4)cc(OC)c1OC [Compound 000307, Podophyllotoxin-4-O-ester of N—BOC-erythro-D-β-Methylphenylalanine]
In Vitro Efficacy: Survival (%) of HCT116 (100 nM): 93.49%
In Vitro Efficacy: Survival (%) of HCT116 (1000 nM): 0%

COc1cc([C@@H]2c3cc4c(cc3[C@H](OC(=O)COc3ccc(Cl)cc3C)[C@H]3COC(=O)[C@H]23)OCO4)cc(OC)c1OC [Compound 000317, Podophyllotoxin-4-O-ester of 4-chloro-2-methylphenoxyacetic acid]
In Vitro Efficacy: Survival (%) of HCT116 (10 nM): 99.49%
In Vitro Efficacy: Survival (%) of HCT116 (100 nM): 0%
In Vitro Efficacy: Survival (%) of HCT116 (1000 nM): 0%

COc1cc([C@@H]2c3cc4c(cc3[C@H](OC(=O)COc3ccc(Br)cc3)[C@H]3COC(=O)[C@H]23)OCO4)cc(OC)c1OC [Compound 000320, Podophyllotoxin-4-O-ester of 4-bromophenoxyacetic acid]
In Vitro Efficacy: Survival (%) of HCT116 (10 nM): 100%
In Vitro Efficacy: Survival (%) of HCT116 (100 nM): 0%
In Vitro Efficacy: Survival (%) of HCT116 (1000 nM): 0%

COc1cc(C2c3cc4c(cc3C(OC(=O)COc3ccc(C=O)cc3)C3COC(=O)C23)OCO4)cc(OC)c1OC (stereo not drawn) [Compound 000323, Podophyllotoxin-4-O-ester of 4-formylphenoxyacetic acid]
In Vitro Efficacy: Survival (%) of HCT116 (10 nM): 90.86%
In Vitro Efficacy: Survival (%) of HCT116 (100 nM): 0%
In Vitro Efficacy: Survival (%) of HCT116 (1000 nM): 0%

COc1cc([C@@H]2c3cc4c(cc3[C@H](OC(=O)COc3ccc(Cl)cc3Cl)[C@H]3COC(=O)[C@H]23)OCO4)cc(OC)c1OC [Compound 000324, Podophyllotoxin-4-O-ester of 2,4-dichlorophenoxyacetic acid]
In Vitro Efficacy: Survival (%) of HCT116 (10 nM): 100%
In Vitro Efficacy: Survival (%) of HCT116 (100 nM): 0%
In Vitro Efficacy: Survival (%) of HCT116 (1000 nM): 0%

COc1ccc(OCC(=O)OC2c3cc4c(cc3C(c3cc(OC)c(OC)c(OC)c3)C3C(=O)OCC23)OCO4)cc1 (stereo not drawn) [Compound 000329, Podophyllotoxin-4-O-ester of 4-methoxyphenoxyacetic acid]
In Vitro Efficacy: Survival (%) of HCT116 (10 nM): 100%
In Vitro Efficacy: Survival (%) of HCT116 (100 nM): 0%
In Vitro Efficacy: Survival (%) of HCT116 (1000 nM): 0%

COc1cc([C@@H]2c3cc4c(cc3[C@H](OC(=O)c3cncc(C(=O)O[C@H]5c6cc7c(cc6[C@@H](c6cc(OC)c(OC)c(OC)c6)[C@H]6C(=O)OC[C@@H]65)OCO7)c3)[C@H]3COC(=O)[C@H]23)OCO4)cc(OC)c1OC [Compound 000330, Bis(Podophyllotoxin-4-O-ester) of 3,5-Pyridinedicarboxylic acid]
In Vitro Efficacy: Survival (%) of HCT116 (10 nM): 100%
In Vitro Efficacy: Survival (%) of HCT116 (100 nM): 0%
In Vitro Efficacy: Survival (%) of HCT116 (1000 nM): 0%

COc1cc([C@@H]2c3cc4c(cc3[C@H](OC(=O)c3cc(C(=O)O[C@H]5c6cc7c(cc6[C@@H](c6cc(OC)c(OC)c(OC)c6)[C@H]6C(=O)OC[C@@H]65)OCO7)cc([N+](=O)[O-])c3)[C@H]3COC(=O)[C@H]23)OCO4)cc(OC)c1OC [Compound 000331, Bis(Podophyllotoxin-4-O-ester) of 5-nitroisophthalic acid]
In Vitro Efficacy: Survival (%) of HCT116 (100 nM): 62.56%
In Vitro Efficacy: Survival (%) of HCT116 (1000 nM): 0%

COc1cc([C@@H]2c3cc4c(cc3[C@H](OC(=O)COc3ccc5c(C)c(Cl)c(=O)oc5c3)[C@H]3COC(=O)[C@H]23)OCO4)cc(OC)c1OC [Compound 000405, Podophyllotoxin-4-O-ester of 7-(carboxymethoxy)-3-chloro-4-methylcoumarin]
In Vitro Efficacy: Survival (%) of HCT116 (10 nM): 90.45%
In Vitro Efficacy: Survival (%) of HCT116 (100 nM): 0%
In Vitro Efficacy: Survival (%) of HCT116 (1000 nM): 0%

COc1cc(C2c3cc4c(cc3C(OC(=O)COc3ccc(I)cc3)C3COC(=O)C23)OCO4)cc(OC)c1OC (stereo not drawn) [Compound 000614, Podophyllotoxin-4-O-ester of 4-iodophenoxyacetic acid]
In Vitro Efficacy: Survival (%) of HCT116 (10 nM): 84.99%
In Vitro Efficacy: Survival (%) of HCT116 (100 nM): 0%
In Vitro Efficacy: Survival (%) of HCT116 (1000 nM): 0%

COc1cc([C@@H]2c3cc4c(cc3[C@H](OC(=O)COc3ccc(F)cc3)[C@H]3COC(=O)[C@H]23)OCO4)cc(OC)c1OC [Compound 000615, Podophyllotoxin-4-O-ester of 4-fluorophenoxyacetic acid]
In Vitro Efficacy: Survival (%) of HCT116 (10 nM): 100%
In Vitro Efficacy: Survival (%) of HCT116 (100 nM): 0%
In Vitro Efficacy: Survival (%) of HCT116 (1000 nM): 0%

COc1cc(C2c3cc4c(cc3C(OC(=O)COc3cccc(Cl)c3)C3COC(=O)C23)OCO4)cc(OC)c1OC (stereo not drawn) [Compound 000622, Podophyllotoxin-4-O-ester of 3-chlorophenoxyacetic acid]
In Vitro Efficacy: Survival (%) of HCT116 (10 nM): 98.48%
In Vitro Efficacy: Survival (%) of HCT116 (100 nM): 0%
In Vitro Efficacy: Survival (%) of HCT116 (1000 nM): 0%

CC[C@@]1(OC(=O)COc2ccc(C(=O)O[C@H]3c4cc5c(cc4[C@@H](c4cc(OC)c(OC)c(OC)c4)C4C(=O)OCC43)OCO5)cc2)C(=O)OCc2c1cc1n(c2=O)Cc2cc3ccccc3nc2-1 (stereo partly drawn) [Compound 000801, Podophyllotoxin-4-O-ester of camptothecin-20-O-ester of 4-carboxylicphenoxyacetic acid]
In Vitro Efficacy: Survival (%) of HCT116 (1 nM): 99.83%
In Vitro Efficacy: Survival (%) of HCT116 (10 nM): 0%
In Vitro Efficacy: Survival (%) of HCT116 (100 nM): 0%
In Vitro Efficacy: Survival (%) of HCT116 (1000 nM): 0%

COc1cc(C2c3cc4c(cc3C(OC(=O)CCCc3ccc(N(CCCl)CCCl)cc3)C3COC(=O)C23)OCO4)cc(OC)c1OC (stereo not drawn) [Compound 0003132, Podophyllotoxin-4-O-ester of 4-(4-dichloroethylamino) phenylbutyric acid]
In Vitro Efficacy: Survival (%) of HCT116 (100 nM): 97.65%
In Vitro Efficacy: Survival (%) of HCT116 (1000 nM): 0%
